Data taken from US20080085264A1, “METHODS FOR ENHANCING STEM CELL ENGRAFTMENT DURING TRANSPLANTATION” (priority 2003, published 2008).

Columns and labels:
CD26/DPPIV = molecular target: T1, CD26/DPPIV (Mus musculus, UniProt P28843); test: CD26/DPPIV peptidase activity of C57BL/6 BM cells (Gly-Pro-pNA); type: cell-based
T1 construct: endogenous in cells; host or cells: sorted mouse (C57BL/6) bone marrow cells
Protocol: Proteolytic activity was determined by measurement of the amount of p-nitroanilide (pNA) formed in the supernatant at 405 nm. One thousand cells per well in the 96-well flat-bottomed plate were incubated at 37° C. with 4 mM Gly-Pro-pNA in 100 μL PBS buffer (pH 7.4) containing 10 mg/ml BSA. Absorbance was measured at 405 nm on a microplate spectrofluorometer (SpectraMax 190, Molecular Devices, Sunnyvale, Calif.) every two minutes and pmoles of pNA formed were calculated by comparison to a pNA standard curve. The results were plotted as pmoles pNA versus minutes and the slope was calculated at the linear portion of the curve giving a measure of DPPIV activity expressed as pmoles/min (U) per 1000 cells. Tests were run using three separate samples (n=3 for each sample); cell-free blanks, substrate-free blanks were run in parallel.

C57BL/6 mice [1] = test: G-CSF induced mobilization of HSC/HPC in C57BL/6 mice (progenitor cell assays of peripheral blood); type: in vivo, mouse; details: inhibitor 5 μmol/mouse 2×/day s.c. during G-CSF mobilization, C57BL/6
Protocol: Mobilization was achieved by treating mice with 2.5 μg (micrograms) G-CSF/mouse 2×/day s.c. for 2 days (Broxmeyer H E, et al. J Exp Med. 1999; 189:1987-1992). Mice simultaneously treated with a specific CD26 inhibitor also underwent treatment with either 5 μmol Diprotin A/mouse 2×/day s.c. for 2 days or 5 μmol Val-Pyr/mouse 2×/day s.c. for 2 days. Diprotin A was obtained commercially (Peptides International, Louisville, Ky.) and Val-Pyr was obtained as a gift from Nicolai Wagtmann (Novo Nordisk, Denmark). After either G-CSF or G-CSF plus CD26 inhibitor treatment peripheral blood cells were collected and total cellular nuclearity was measured and progenitor cell assays were performed using total peripheral blood cells.
One-hundred thousand mouse G-CSF mobilized peripheral blood cells were plated in triplicate for colony formation by CFU-GM, BFU-E, and CFU-GEMM and scored at 7 days incubation as previously described (Cooper S, Broxmeyer H E. Measurement of interleukin-3 and other hematopoietic growth factors, such as GM-CSF, G-CSF, M-CSF, erkythropoietin and the potent co-stimulating cytokines steel factor and FLt-3 ligand. In: Coligan J E K A, Margulies D H, Shevach E M, Strober E, Coico R, ed. Current protocols in immunology. New York: John Wiley & Sons; 1996:6.4.1-6.4.12). Cells were plated for colony formation in 1% methylcellulose culture medium containing 30% FBS, 1 U/ml recombinant(r) human Epo, 0.1 mM Hemin, 5% Pokeweed Mitogen Spleen Conditioned Media (PWMSCM), and 50 ng/ml rmouse Steel Factor (=Stem Cell Factor, SCF).

C57BL/6 mice [2] = test: as above; type: in vivo; details: 5 μmol/mouse 2×/day s.c. alone, without G-CSF
[3] = system: Sca-1+lin- mouse BM cells; test: Chemotaxis assay, CXCL12 induced migration of Sca-1+lin- mouse BM cells; type: cell-based
Protocol: Chemotaxis assays were performed using 96-well chemotaxis chambers (NeuroProbe, Gaithersburg, Md.) in accordance with manufacturer's instructions as described previously with minor variations (Christopherson K W, 2nd, et al. J Immunol. 2002; 169:7000-7008; Christopherson K W, 2nd, et al. Blood. 2001; 98:3562-3568; Christopherson K, 2nd, et al. Immunol Lett. 1999; 69:269-273). Briefly 300 μl of RPMI supplemented with 10% FBS and either 0, 100, 200, and 400 ng/ml of mouse CXCL12 chemokine was added to the lower chamber. Ten-thousand sorted cells in 50 μL of media were added to the upper side of the membrane (5.7 mm diameter, 5 μm pore size, polycarbonate membrane.)
Total cell number in the lower well was obtained by counting using hemocytometer after 4 hours of incubation at 37° C., 5% CO2. Percent migration was calculated by dividing the number of the cells in the lower well by the total cell input multiplied by 100 and subtracting random migration (always less than 5%) to the lower chamber without chemokine presence. Three samples were analyzed separately in triplicate, and then the data averaged for statistical analysis.
Inhibition of endogenous CD26/DPPIV activity was accomplished by pretreatment of cells with 5 mM Diprotin A (Peptides International, Louisville, Ky.) for 15 minutes at 37° C. Diprotin A was allowed to remain in the chemotaxis chamber during the assay. […]

BoyJ recipient mice = test: Short-term homing of donor Sca-1+lin- cells to recipient bone marrow; type: in vivo, mouse
Protocol: Control C57BL/6 (CD45.2^+), CD26 inhibitor treated C57BL/6 (CD45.2^+), or CD26^−/− (CD45.2^+) sorted Sca-1^+lin^− or LD donor BM cells were transplanted by tail-vein injection into lethally irradiated (1100 cGy split dose) congenic BoyJ (CD45.1^+) female recipient mice (Haneline L S, et al. Blood. 1999; 94:1-8.) Contribution of Sca^+lin^− donor cells in the context of Sca-1^+lin^− recipient cells was calculated by flow cytometric analysis of cells found in the recipient mouse BM by measuring CD45.1+ and CD45.2^+ on Sca-1^+lin^− LD cells isolated from the recipient mice 24 hours post transplant. […] Comparisons between treatment groups were made using a two-tailed Student's t-test and data was plotted as mean (M)±standard error of the mean (SEM).

T1 sequence (P28843 whole entry): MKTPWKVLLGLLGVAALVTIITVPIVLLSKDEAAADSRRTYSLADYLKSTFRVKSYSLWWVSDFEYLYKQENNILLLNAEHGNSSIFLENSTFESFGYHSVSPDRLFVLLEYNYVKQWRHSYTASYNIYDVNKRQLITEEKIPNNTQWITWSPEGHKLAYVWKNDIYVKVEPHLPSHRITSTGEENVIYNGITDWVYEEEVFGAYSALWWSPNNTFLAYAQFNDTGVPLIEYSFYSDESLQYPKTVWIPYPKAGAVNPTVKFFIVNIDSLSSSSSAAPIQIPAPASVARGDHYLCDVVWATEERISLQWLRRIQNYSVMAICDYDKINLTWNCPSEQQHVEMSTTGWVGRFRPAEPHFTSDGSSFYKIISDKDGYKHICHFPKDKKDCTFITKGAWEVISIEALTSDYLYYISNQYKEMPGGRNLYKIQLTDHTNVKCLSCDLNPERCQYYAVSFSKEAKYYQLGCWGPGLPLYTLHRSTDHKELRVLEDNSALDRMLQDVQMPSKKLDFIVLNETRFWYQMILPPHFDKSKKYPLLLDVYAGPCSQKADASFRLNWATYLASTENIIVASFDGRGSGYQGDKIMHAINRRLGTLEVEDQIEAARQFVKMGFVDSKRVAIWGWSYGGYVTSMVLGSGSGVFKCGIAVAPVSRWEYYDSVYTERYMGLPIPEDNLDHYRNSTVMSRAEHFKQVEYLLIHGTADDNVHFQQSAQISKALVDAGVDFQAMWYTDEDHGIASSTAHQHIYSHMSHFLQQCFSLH

CD26 peptidase activity with inhibitor treatment (CD26/DPPIV; C57BL/6 BM cells, P<0.01): rapidly lost | recovery of CD26 activity begins, time post treatment (CD26/DPPIV; cells washed 15 minutes post inhibitor treatment): within four hours
Substance: Ile-Pro-Ile [Diprotin A]
reduction in BFU-E compared to G-CSF alone (C57BL/6 mice [1]): 29% | reduction in CFU-GEMM compared to G-CSF alone (C57BL/6 mice [1]): 63% | reduction in CFU-GM compared to G-CSF alone (C57BL/6 mice [1]): 59% | effect on the mobilization of progenitors, inhibitor alone (C57BL/6 mice [2]): little or no effect | increase in CXCL12-induced migratory response ([3]; Diprotin A treated Sca-1+lin- BM cells from C57BL/6 mice): two-fold | effect on CXCL12-induced migration of CD26-/- cells ([3]; Diprotin A treatment of CD26-/- Sca-1+lin- cells compared to untreated CD26-/- cells): no further enhancing effect | increase in homing efficiency (BoyJ recipient mice; 1×10^4 sorted Sca-1+lin- BM C57Bl/6 donor cells treated 15 minutes prior to transplant, vs untreated cells): 9 fold | short-term homing of donor cells (BoyJ recipient mice; donor LDBM unit treated prior to transplant, P<0.01, n=6): significant increase in short-term homing
